This note sets out measurements from ChEMBL document CHEMBL1131526, “Non-peptidic HIV protease inhibitors: C2-symmetry-based design of bis-sulfonamide dihydropyrones” (Bioorg Med Chem Lett, 1998).

The target in assay [1] is Human immunodeficiency virus type 1 protease (Human immunodeficiency virus 1, UniProt Q72874). The assay is described as follows: Compound was evaluated for in vitro inhibition of human immunodeficiency virus type 1 (HIV-1) Protease.
Assay [2] addresses Human immunodeficiency virus type 1 protease (Human immunodeficiency virus 1) (UniProt Q72874). The assay is described as follows: Compound was evaluated for in vitro inhibition of human immunodeficiency virus type 1 (HIV-1) Protease at 1 uM concentration.
A short description of assay [3]: Compound was evaluated for in vitro inhibition of human immunodeficiency virus type 1 (HIV-1) Protease.

With `CCC(C1=C(O)OC(CC)(c2cccc(NS(=O)(=O)c3ccc(C#N)cn3)c2)CC1=O)c1cccc(NS(=O)(=O)c2ccc(C#N)cn2)c1` (stereo unspecified), the Ki in assay [1] stood at 0.1 nM. As for `CCC(C1=C(O)OC(CC)(c2cccc(NS(=O)(=O)c3ccc(C#N)cc3)c2)CC1=O)c1cccc(NS(=O)(=O)c2ccc(C#N)cc2)c1` (stereo unspecified), the inhibition in assay [2] came to 19%.

As to `CCC(C1=C(O)OC(CC)(c2cccc(NS(=O)(=O)c3cn(C)cn3)c2)CC1=O)c1cccc(NS(=O)(=O)c2cn(C)cn2)c1` (stereo unspecified), the inhibition constant (Ki) in assay [1] worked out at 4.7 nM. Regarding `CCC(C1=C(O)OC(CC)(c2cccc(NS(=O)(=O)c3cccc4cccnc34)c2)CC1=O)c1cccc(NS(=O)(=O)c2cccc3cccnc23)c1` (stereo unspecified), the inhibition in assay [2] was determined as 35%. Take `CCCC1(CCc2ccccc2)CC(=O)C(C(CC)c2cccc(NS(=O)(=O)c3cn(C)cn3)c2)=C(O)O1` (stereo unspecified): it took 500 nM to reach half-maximal inhibition in assay [3] (IC50). Besides, the affinity in assay [1], expressed as Ki, was 1 nM.

For orientation: Ki means a measure of affinity in units of concentration, obtained from inhibition or displacement. A lower Ki goes with higher affinity. The term inhibition denotes how much of the control response was suppressed. High values mean strong suppression, low ones little suppression. One may read the IC50 as the point on the concentration scale where inhibition reaches its midpoint.
